# Measured values as given in paper PMC9573696, “Experimental Examination of Solubility and Lipophilicity as Pharmaceutically Relevant Points of Novel Bioactive Hybrid Compounds” (Molecules, 2022).
# Marks after values point to notes of the source that are not given here.
# Assays:
# [1] = Equilibrium (thermodynamic) solubility, shake-flask method; type: physicochemical; settings: for Solubility S × 10^2 / Solubility x × 10^3: 1-Octanol; for Solubility S × 10^2 / Solubility x × 10^3 / Solubility S × 10^4 / Solubility x × 10^5 / Solubility S × 10^5 / Solubility x × 10^6: amorphous state; for Solubility S × 10^4 / Solubility x × 10^5: Buffer pH 2.0; for Solubility S × 10^5 / Solubility x × 10^6: Buffer pH 7.4
# Text: The experimental solubility values of hybrids in the selected solvents within the temperature range of 293.15–313.15 K expressed in molarity are summarized in Table 2. The comparative analysis of the reference values of the solubility of compounds I–III at the standard temperature of 298.15 K is given as a histogram in Figure 3.
# Shake-flask method as “gold standard” was used for determination thermodynamic solubility synthesized compounds in buffer solutions (pH 2.0 and 7.4) and 1-octanol in the temperature range of 293.15–313.15 K with a step of 5 degrees at atmospheric pressure. Excessive amounts of compound were added to glass vials c 12 mL of selected solvent. The heterogeneous system is closed with a lid and vigorously stirred at the selected temperature in an air thermostat with a stirring device until the solubility equilibrium has been reached. The time required for establishing a constant value of the solution concentration was determined from the solubility kinetic dependences and averaged 2 days. The equilibrated solutions were first survived to aim sedimentation of solid phase during 10 h, then centrifuged at 20,000 rpm for 30 min at specific temperatures, and then quickly filtered using a syringe equipped with a hydrophilic filter Millex-GV 0.22 µm (Ireland). Concentration of saturated solution was measured using spectrophotometer Cary-50 (Varian, USA) with an accuracy of 2–4%. The absorbances of compounds studied were measured at wavelengths 332 and 334 nm in buffer solutions and 1-octanol, respectively. If necessary, an aliquot was diluted with an appropriate solvent. The final pH of the saturated buffers was monitored. The solubility of compounds in each solvent was determined by repeating the procedure three times.
# Mole fraction concentration was calculated from solubility value S expressed in mol∙L^−1 using Equation (10):(10) x=M2S/S(M2−M1)+1000ρ, where M1 and M2 are the molar masses of solute and solvent, respectively, and ρ (g∙cm^−3) is the density of the pure solvents. The mole fraction solubilities for buffer solutions were calculated taking into account the buffer compositions. The used values of densities are given in Table S6 in Supplementary Material.
# [2] = Apparent thermodynamic functions of dissolution (van't Hoff); type: physicochemical; settings: Thm = 302.98 K
# Text: The dissolution of the new hybrids was characterized based on apparent thermodynamic parameters obtained from temperature dependences of solubility of the studied compounds in the selected solvents (Figure 6). […] The van’t Hoff enthalpy of dissolution can be expressed as the inclination of a tangent to a solubility curve plotted as lnx vs. (1/T − 1/Thm) by Equation (6): (6) ΔHsolo=−R(∂lnx/∂(1/T−1/Thm))=−R⋅slope where R = 8.314 J⋅K^−1·mol^−1 is the universal gas constant. Thm = 302.98 K denotes the mean harmonic temperature, which was calculated by Equation (7):(7) Thm=n/∑i=1n1/Ti where n represented the number of experimental temperatures. The apparent standard Gibbs energy was evaluated by Equation (8):(8) ΔGsolo=−RThm×intersept
# The apparent standard solution entropies were obtained from the well-known relationship:(9) ΔSsolo=ΔHsolo−ΔGsolo/Thm
# The calculated apparent thermodynamic solubility functions of dissolution (Gibbs energy, enthalpy, and entropy) at standard temperature 298.15 K for hybrid compounds were collected in Table 4.
smiles,measurement,setting,value
"O=c1c2sc(=S)n(-c3ccc(Cl)cc3)c2ncn1CCCN1CCN(CC(O)(Cn2cncn2)c2ccc(F)cc2F)CC1 (stereo not shown) [III, 6-[3-[4-[2-(2,4-difluorophenyl)-2-hydroxy-3-(1H-1,2,4-triazol-1-yl)propyl]-1-piperazinyl]propyl]-2,3-dihydro-3-(4-chlorophenyl)-2-thioxo-thiazolo[4,5-d]pyrimidin-7(6H)-one]",Solubility S × 10^2,[1]; 293.15 K,1.1196 mol∙L^−1 (printed as S × 10^2)
same,Solubility x × 10^3,[1]; 293.15 K,1.7767 mol. frac. (printed as x × 10^
same,Solubility S × 10^2,[1]; 298.15 K,1.2269 mol∙L^−1 (printed as S × 10^2)
same,Solubility x × 10^3,[1]; 298.15 K,1.9566 mol. frac. (printed as x × 10^
same,Solubility S × 10^2,[1]; 303.15 K,1.3464 mol∙L^−1 (printed as S × 10^2)
same,Solubility x × 10^3,[1]; 303.15 K,2.1577 mol. frac. (printed as x × 10^
same,Solubility S × 10^2,[1]; 308.15 K,1.4730 mol∙L^−1 (printed as S × 10^2)
same,Solubility x × 10^3,[1]; 308.15 K,2.3729 mol. frac. (printed as x × 10^
same,Solubility S × 10^2,[1]; 313.15 K,1.6045 mol∙L^−1 (printed as S × 10^2)
same,Solubility x × 10^3,[1]; 313.15 K,2.5979 mol. frac. (printed as x × 10^
same,solubility at 2 days,"[1]; 25 °C, organic solvent or mixture, thermodynamic from solid, 1-octanol, text values match 298.15 K, read-out: Solubility S in the alcohol (1-octanol)",12.3 mM
same,Solubility S × 10^4,[1]; 293.15 K,6.3622 mol∙L^−1 (printed as S × 10^4)
same,Solubility x × 10^5,[1]; 293.15 K,1.1474 mol. frac. (printed as x × 10^
same,Solubility S × 10^4,[1]; 298.15 K,6.7826 mol∙L^−1 (printed as S × 10^4)
same,Solubility x × 10^5,[1]; 298.15 K,1.2247 mol. frac. (printed as x × 10^
same,Solubility S × 10^4,[1]; 303.15 K,7.1958 mol∙L^−1 (printed as S × 10^4)
same,Solubility x × 10^5,[1]; 303.15 K,1.3013 mol. frac. (printed as x × 10^
same,Solubility S × 10^4,[1]; 308.15 K,7.5805 mol∙L^−1 (printed as S × 10^4)
same,Solubility x × 10^5,[1]; 308.15 K,1.3731 mol. frac. (printed as x × 10^
same,Solubility S × 10^4,[1]; 313.15 K,7.9724 mol∙L^−1 (printed as S × 10^4)
same,Solubility x × 10^5,[1]; 313.15 K,1.4468 mol. frac. (printed as x × 10^
same,Solubility S × 10^5,[1]; 293.15 K,5.8572 mol∙L^−1 (printed as S × 10^5)
same,Solubility x × 10^6,[1]; 293.15 K,1.0651 mol. frac. (printed as x × 10^
same,Solubility S × 10^5,[1]; 298.15 K,6.7347 mol∙L^−1 (printed as S × 10^5)
same,Solubility x × 10^6,[1]; 298.15 K,1.2262 mol. frac. (printed as x × 10^
same,Solubility S × 10^5,[1]; 303.15 K,7.7877 mol∙L^−1 (printed as S × 10^5)
same,Solubility x × 10^6,[1]; 303.15 K,1.4201 mol. frac. (printed as x × 10^
same,Solubility S × 10^5,[1]; 308.15 K,8.9503 mol∙L^−1 (printed as S × 10^5)
same,Solubility x × 10^6,[1]; 308.15 K,1.6349 mol. frac. (printed as x × 10^
same,Solubility S × 10^5,[1]; 313.15 K,10.2665 mol∙L^−1 (printed as S × 10^5)
same,Solubility x × 10^6,[1]; 313.15 K,1.8788 mol. frac. (printed as x × 10^
same,TΔSsolo,[2]; 1-Octanol,-0.9 kJ/mol
same,ΔGsolo,[2]; 1-Octanol,15.4 ± 0.3 kJ/mol
same,ΔHsolo,[2]; 1-Octanol,14.5 ± 0.1 kJ/mol
same,ΔSsolo,[2]; 1-Octanol,−3.1 ± 0.2 J·mol^−1·K^−1
same,TΔSsolo,[2]; Buffer pH 2.0,-19.2 kJ/mol
same,ΔGsolo,[2]; Buffer pH 2.0,28.0 ± 0.4 kJ/mol
same,ΔHsolo,[2]; Buffer pH 2.0,8.8 ± 0.1 kJ/mol
same,ΔSsolo,[2]; Buffer pH 2.0,−64.4 ± 3.8 J·mol^−1·K^−1
same,TΔSsolo,[2]; Buffer pH 7.4,-12.0 kJ/mol
same,ΔGsolo,[2]; Buffer pH 7.4,33.7 ± 0.7 kJ/mol
same,ΔHsolo,[2]; Buffer pH 7.4,21.7 ± 0.2 kJ/mol
same,ΔSsolo,[2]; Buffer pH 7.4,−40.3 ± 2.3 J·mol^−1·K^−1
